Source: PubChem BioAssay AID248 (DTP/NCI, 2004)
“And” between values parts separate entries of the source, which are not always exact repeats. Equal values may be shown once. Inconclusive results and toxic doses are left out. Cut-off read from the data, not from the text of the source: active = T/C of 150% or more; inactive = T/C below 125%. Peptide text beside a SMILES is read from it. * marks the point of attachment. Cbz = O=C(OCc1ccccc1)*

Test system: L1210 leukemia ip in BDF1 mice, survival T/C
Assay: NCI In Vivo Anticancer Drug Screen. Data for tumor model L1210 Leukemia (intraperitoneal) in B6D2F1 (BDF1) mice
Settings: endpoint: mean survival time, higher = longer survival
Procedure, shortened: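 Read-out is survival time, reported as the treated-group measurement over the vehicle-control measurement.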

[1] = dose: 100.0 mg/kg/injection, schedule: Q01DX009 (ip), vehicle: Klucel (hydroxypropylcellulose) (HPC)
[2] = dose: 100.0 mg/kg/injection, schedule: Q04DX003 (ip), vehicle: Klucel (hydroxypropylcellulose) (HPC)
[3] = dose: 200.0 mg/kg/injection, schedule: Q01DX009 (ip), vehicle: Klucel (hydroxypropylcellulose) (HPC)
[4] = dose: 200.0 mg/kg/injection, schedule: Q04DX003 (ip), vehicle: Klucel (hydroxypropylcellulose) (HPC)
[5] = dose: 400.0 mg/kg/injection, schedule: Q01DX009 (ip), vehicle: Klucel (hydroxypropylcellulose) (HPC)
[6] = dose: 400.0 mg/kg/injection, schedule: Q04DX003 (ip), vehicle: Klucel (hydroxypropylcellulose) (HPC)
[7] = dose: 100.0 mg/kg/injection, schedule: Q01DX001 (ip), vehicle: carboxymethylcellulose (CMC)
[8] = dose: 200.0 mg/kg/injection, schedule: Q01DX001 (ip), vehicle: carboxymethylcellulose (CMC)
[9] = dose: 400.0 mg/kg/injection, schedule: Q01DX001 (ip), vehicle: carboxymethylcellulose (CMC)
[10] = dose: 100.0 mg/kg/injection, schedule: Q04DX003 (ip), vehicle: saline with Tween-80
[11] = dose: 200.0 mg/kg/injection, schedule: Q04DX003 (ip), vehicle: saline with Tween-80
[12] = dose: 400.0 mg/kg/injection, schedule: Q04DX003 (ip), vehicle: saline with Tween-80
[13] = dose: 100.0 mg/kg/injection, schedule: Q01DX001 (ip), vehicle: saline
[14] = dose: 200.0 mg/kg/injection, schedule: Q01DX001 (ip), vehicle: saline
[15] = dose: 400.0 mg/kg/injection, schedule: Q01DX001 (ip), vehicle: saline
[16] = dose: 100.0 mg/kg/injection, schedule: Q04DX002 (ip), vehicle: saline with Tween-80
[17] = dose: 200.0 mg/kg/injection, schedule: Q04DX002 (ip), vehicle: saline with Tween-80
[18] = dose: 100.0 mg/kg/injection, schedule: Q04DX002 (ip), vehicle: Klucel (hydroxypropylcellulose) (HPC)
[19] = dose: 200.0 mg/kg/injection, schedule: Q04DX002 (ip), vehicle: Klucel (hydroxypropylcellulose) (HPC)
[20] = dose: 400.0 mg/kg/injection, schedule: Q04DX002 (ip), vehicle: Klucel (hydroxypropylcellulose) (HPC)
[21] = dose: 100.0 mg/kg/injection, schedule: Q01DX009 (ip), vehicle: saline with Tween-80
[22] = dose: 200.0 mg/kg/injection, schedule: Q01DX009 (ip), vehicle: saline with Tween-80
[23] = dose: 400.0 mg/kg/injection, schedule: Q01DX009 (ip), vehicle: saline with Tween-80
[24] = dose: 400.0 mg/kg/injection, schedule: Q04DX002 (ip), vehicle: saline with Tween-80
[25] = dose: 100.0 mg/kg/injection, schedule: Q04DX003 (ip), vehicle: saline
[26] = dose: 200.0 mg/kg/injection, schedule: Q04DX003 (ip), vehicle: saline

Measured: T/C

O=C(O)C1C(c2ccccc2)=C1c1ccc(Br)cc1 (centres undefined)
inactive: [1] 100 % of control | [2] 93 % of control | [3] 118 % of control | [4] 102 % of control | [5] 101 % of control | [6] 88 % of control

O=C1NC(c2ccccc2Cl)Nc2ccccc21 (centres undefined)
inactive: dose: 50.0 mg/kg/injection, schedule: Q01DX009 (ip), vehicle: Klucel (hydroxypropylcellulose) (HPC) 103 % of control | [1] 101 % of control | dose: 150.0 mg/kg/injection, schedule: Q01DX009 (ip), vehicle: Klucel (hydroxypropylcellulose) (HPC) 97 % of control

CC(=O)Nc1ccc(NC(=O)Nc2ccccc2C(F)(F)F)cc1
inactive: [7] 94 % of control and 90 % of control | dose: 100.0 mg/kg/injection, schedule: Q01DX009 (ip), vehicle: carboxymethylcellulose (CMC) 93 % of control and 97 % of control | dose: 100.0 mg/kg/injection, schedule: Q04DX002 (ip), vehicle: carboxymethylcellulose (CMC) 95 % of control and 102 % of control | dose: 100.0 mg/kg/injection, schedule: Q04DX003 (ip), vehicle: carboxymethylcellulose (CMC) 100 % of control and 117 % of control | [8] 94 % of control and 90 % of control | dose: 200.0 mg/kg/injection, schedule: Q01DX009 (ip), vehicle: carboxymethylcellulose (CMC) 94 % of control and 96 % of control | dose: 200.0 mg/kg/injection, schedule: Q04DX002 (ip), vehicle: carboxymethylcellulose (CMC) 96 % of control and 92 % of control | dose: 200.0 mg/kg/injection, schedule: Q04DX003 (ip), vehicle: carboxymethylcellulose (CMC) 95 % of control and 99 % of control | [9] 97 % of control | dose: 400.0 mg/kg/injection, schedule: Q01DX009 (ip), vehicle: carboxymethylcellulose (CMC) 98 % of control and 91 % of control | dose: 400.0 mg/kg/injection, schedule: Q04DX002 (ip), vehicle: carboxymethylcellulose (CMC) 86 % of control | dose: 400.0 mg/kg/injection, schedule: Q04DX003 (ip), vehicle: carboxymethylcellulose (CMC) 91 % of control

N#Cc1ccc(S(=O)(=O)Cl)cc1
inactive: dose: 25.0 mg/kg/injection, schedule: Q04DX003 (ip), vehicle: Klucel (hydroxypropylcellulose) (HPC) 95 % of control | dose: 50.0 mg/kg/injection, schedule: Q04DX003 (ip), vehicle: Klucel (hydroxypropylcellulose) (HPC) 100 % of control | [2] 93 % of control and 91 % of control

COc1ccc(C(=O)CC(c2ccccc2)N2CCCCC2)cc1OC (centres undefined)
inactive: [10] 100 % of control | [11] 108 % of control | [12] 105 % of control

N#CC1(N(O)C(=O)Nc2ccccc2)CCCCC1
inactive: [13] 93 % of control | [14] 96 % of control | [15] 91 % of control

CCN1CCN(CC)C1(Br)C1(Br)N(CC)CCN1CC
inactive: dose: 75.0 mg/kg/injection, schedule: Q04DX002 (ip), vehicle: saline with Tween-80 91 % of control | dose: 150.0 mg/kg/injection, schedule: Q04DX002 (ip), vehicle: saline with Tween-80 91 % of control | dose: 300.0 mg/kg/injection, schedule: Q04DX002 (ip), vehicle: saline with Tween-80 98 % of control

CCCC(=O)N1C(C)CCC1C (centres undefined)
inactive: [16] 103 % of control | [17] 95 % of control

O=S(=O)(c1ccc(Nc2nc(Cl)nc(Cl)n2)cc1)N(CCCl)CCCl
inactive: [1] 103 % of control | [3] 104 % of control | [5] 107 % of control

COc1ccc(NC(=O)c2ccc(C(=O)Nc3ccc(OC)cc3OC)cc2)c(OC)c1
inactive: [18] 90 % of control | [19] 93 % of control and 102 % of control | [20] 93 % of control and 91 % of control

O=C(NC(=S)Nc1cc(C(F)(F)F)ccc1Cl)c1cccc([N+](=O)[O-])c1
inactive: dose: 100.0 mg/kg/injection, schedule: Q01DX001 (ip), vehicle: saline with Tween-80 105 % of control | [21] 96 % of control and 108 % of control | [10] 99 % of control | dose: 200.0 mg/kg/injection, schedule: Q01DX001 (ip), vehicle: saline with Tween-80 103 % of control | [22] 92 % of control and 99 % of control | [17] 98 % of control and 118 % of control | [11] 103 % of control | dose: 400.0 mg/kg/injection, schedule: Q01DX001 (ip), vehicle: saline with Tween-80 87 % of control | [23] 92 % of control and 94 % of control | [24] 95 % of control and 102 % of control | [12] 89 % of control

CN1C(=O)c2ccccc2NC(=O)C12OC2c1ccccc1 (centres undefined)
inactive: [13] 101 % of control | [14] 101 % of control | [15] 97 % of control

O=C1C(=C(c2ccccc2)N2CCCCC2)C(=O)c2ccccc21
inactive: [13] 104 % of control | [14] 109 % of control | [15] 106 % of control

CC1C(OC(=O)CCc2ccccc2)=CCC2C1(C)CCC1C2(C)CCC2(C)C3CC(C)(C)CCC3(C)CCC12C (centres undefined)
inactive: dose: 50.0 mg/kg/injection, schedule: Q01DX001 (ip), vehicle: saline 98 % of control | [13] 102 % of control | [14] 95 % of control

CN(C)NP(=O)(NN(C)C)N(C)C
inactive: [25] 100 % of control | [26] 100 % of control | dose: 400.0 mg/kg/injection, schedule: Q04DX003 (ip), vehicle: saline 94 % of control

Cc1cc(C)c(Nc2n[nH]c(=S)s2)cc1C
inactive: [16] 87 % of control | [17] 92 % of control | [24] 94 % of control

O=C(O)CCOc1ccccc1Cl
inactive: [21] 91 % of control | [18] 98 % of control | [22] 95 % of control | [19] 95 % of control | [23] 93 % of control | [20] 106 % of control

Cc1cc2ccccc2c2cc3ccccc3cc12
inactive: [1] 104 % of control | dose: 100.0 mg/kg/injection, schedule: Q04DX003 (ip), vehicle: other 111 % of control | [3] 109 % of control | dose: 200.0 mg/kg/injection, schedule: Q04DX003 (ip), vehicle: other 106 % of control | [5] 107 % of control | dose: 400.0 mg/kg/injection, schedule: Q04DX003 (ip), vehicle: other 111 % of control

CSCCC(NC(=O)C(CO)NC(=O)OCc1ccccc1)C(=O)O (stereo not drawn) (Cbz-Ser-Met-OH; configuration not given here)
inactive: [2] 96 % of control | [4] 97 % of control | [6] 96 % of control

Cc1cccc(C)c1NC(=O)Oc1ccc(F)cc1Cl
inactive: [1] 110 % of control | [3] 97 % of control

c1ccc(C2=Nc3ccccc3N=C3CCCC32)cc1 (centres undefined)
inactive: [7] 103 % of control | [8] 100 % of control | [9] 97 % of control

COc1ccc(NC(=O)COc2ccc(C)cc2C)cc1
inactive: [18] 95 % of control | [19] 103 % of control | [20] 89 % of control

O=C(CNC1=NCCN1)Nc1ccc(NC(=O)c2ccc(C(=O)Nc3ccc(NC(=O)CNC4=NCCN4)cc3)cc2)cc1
inactive: dose: 30.0 mg/kg/injection, schedule: Q01DX Z (ip), vehicle: water 114 % of control | dose: 40.0 mg/kg/injection, schedule: Q01DX Z (ip), vehicle: water 120 % of control | dose: 50.0 mg/kg/injection, schedule: Q01DX Z (ip), vehicle: water 121 % of control | dose: 62.5 mg/kg/injection, schedule: Q01DX Z (ip), vehicle: water 124 % of control | dose: 125.0 mg/kg/injection, schedule: Q01DX Z (ip), vehicle: water 118 % of control | dose: 250.0 mg/kg/injection, schedule: Q01DX Z (ip), vehicle: water 109 % of control | dose: 500.0 mg/kg/injection, schedule: Q01DX Z (ip), vehicle: water 106 % of control

CSc1nnc(-c2ccncc2)s1
inactive: [25] 104 % of control | [26] 107 % of control

OC1c2ccccc2C(c2ccccc2)C1c1ccccc1 (centres undefined)
inactive: [11] 87 % of control | [12] 90 % of control

Cc1ccc(CCS(=O)(=O)N=[N+]=[N-])cc1
inactive: [13] 101 % of control | [14] 97 % of control | [15] 101 % of control
